In ChEMBL document CHEMBL4229467, “Acyl Glucuronide Metabolites of 6-Chloro-5-[4-(1-hydroxycyclobutyl)phenyl]-1 H-indole-3-carboxylic Acid (PF-06409577) and Related Indole-3-carboxylic Acid Derivatives are Direct Activators of Adenosine Monophosphate-Activated Protein Kinase (AMPK)” (J Med Chem, 2018):
pEC50, pKd: −log10 of the molar value. One block for each molecule: values may come before it.

Columns and labels:
[1] = physchem; conditions: in vivo, pH 7.4
[2] = Half life of the compound in deuteriated phosphate buffer at pH 7.4 at 37 degC measured every 25 mins for 21 hrs by 1H NMR analysis; format: physicochemical
[3] = Drug level in human hepatocytes treated with (S)-4,6-difluoro-5-(4-(tetrahydro-2H-pyran-2-yl)phenyl)-1H-indole-3-carboxylic acid at 10 uM after 4 hrs by HPLC-UV analysis; format: ADME, cell-based, Hepatocyte
[4] = target: AMP-activated protein kinase (AMPK) alpha-1/beta-1/gamma-1 (Homo sapiens) (UniProt P54619+Q9Y478+Q13131)
Sequence of AMP-activated protein kinase (AMPK) alpha-1/beta-1/gamma-1 (Homo sapiens) (P54619 whole entry): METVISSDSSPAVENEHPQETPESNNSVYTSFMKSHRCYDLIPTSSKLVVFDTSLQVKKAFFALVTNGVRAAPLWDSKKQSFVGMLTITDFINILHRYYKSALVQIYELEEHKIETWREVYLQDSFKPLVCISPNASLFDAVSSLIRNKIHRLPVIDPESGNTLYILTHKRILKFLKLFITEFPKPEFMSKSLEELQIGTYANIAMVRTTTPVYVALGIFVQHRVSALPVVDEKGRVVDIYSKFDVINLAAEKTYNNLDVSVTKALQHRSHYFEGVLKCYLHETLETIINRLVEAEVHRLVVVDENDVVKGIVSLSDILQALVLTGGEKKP
Sequence of AMP-activated protein kinase (AMPK) alpha-1/beta-1/gamma-1 (Homo sapiens) (Q13131 whole entry partner): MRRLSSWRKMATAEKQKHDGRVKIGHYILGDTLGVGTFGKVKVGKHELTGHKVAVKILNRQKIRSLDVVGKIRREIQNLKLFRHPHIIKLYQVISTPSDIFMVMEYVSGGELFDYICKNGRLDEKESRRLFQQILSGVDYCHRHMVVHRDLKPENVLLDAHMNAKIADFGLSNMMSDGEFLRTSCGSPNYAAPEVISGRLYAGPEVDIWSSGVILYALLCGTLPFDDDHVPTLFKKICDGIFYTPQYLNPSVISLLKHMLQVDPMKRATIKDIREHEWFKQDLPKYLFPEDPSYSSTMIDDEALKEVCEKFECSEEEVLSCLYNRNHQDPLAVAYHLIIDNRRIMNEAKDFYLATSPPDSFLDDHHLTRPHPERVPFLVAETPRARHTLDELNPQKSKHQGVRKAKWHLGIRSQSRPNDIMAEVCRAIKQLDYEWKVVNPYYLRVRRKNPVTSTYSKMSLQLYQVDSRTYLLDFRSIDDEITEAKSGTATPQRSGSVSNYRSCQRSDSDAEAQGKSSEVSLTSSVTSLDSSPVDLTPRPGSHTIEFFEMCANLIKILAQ
Sequence of AMP-activated protein kinase (AMPK) alpha-1/beta-1/gamma-1 (Homo sapiens) (Q9Y478 2-270 partner limits assumed): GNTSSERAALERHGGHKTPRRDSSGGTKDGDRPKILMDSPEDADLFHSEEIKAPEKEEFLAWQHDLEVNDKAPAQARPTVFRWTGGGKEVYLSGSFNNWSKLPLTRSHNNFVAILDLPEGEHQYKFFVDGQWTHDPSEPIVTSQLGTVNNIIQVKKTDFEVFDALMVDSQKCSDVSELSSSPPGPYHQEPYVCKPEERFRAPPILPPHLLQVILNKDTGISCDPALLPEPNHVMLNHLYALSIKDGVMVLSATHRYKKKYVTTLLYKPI
Description: Binding affinity to Bap-tagged human AMPKalpha1beta1gamma1 expressed in Escherichia coli BL21 cells assessed as dissociation half life by SPR analysis

[5] = system: Hepatocyte; conditions: human, hepatocytes, 4 h, 10 µM
Description: Retention time of the compound in human hepatocytes at 10 uM after 4 hrs by HPLC-UV analysis

[6] = in vitro; conditions: dog, MDCK
Description: Apparent passive permeability of the compound in RRCK cells by FACS analysis

[7] = target: AMPK alpha2/beta2/gamma3 (Homo sapiens, UniProt O43741+P54646+Q9UGI9); assay: biochemical
Sequence of AMPK alpha2/beta2/gamma3 (P54646 whole entry): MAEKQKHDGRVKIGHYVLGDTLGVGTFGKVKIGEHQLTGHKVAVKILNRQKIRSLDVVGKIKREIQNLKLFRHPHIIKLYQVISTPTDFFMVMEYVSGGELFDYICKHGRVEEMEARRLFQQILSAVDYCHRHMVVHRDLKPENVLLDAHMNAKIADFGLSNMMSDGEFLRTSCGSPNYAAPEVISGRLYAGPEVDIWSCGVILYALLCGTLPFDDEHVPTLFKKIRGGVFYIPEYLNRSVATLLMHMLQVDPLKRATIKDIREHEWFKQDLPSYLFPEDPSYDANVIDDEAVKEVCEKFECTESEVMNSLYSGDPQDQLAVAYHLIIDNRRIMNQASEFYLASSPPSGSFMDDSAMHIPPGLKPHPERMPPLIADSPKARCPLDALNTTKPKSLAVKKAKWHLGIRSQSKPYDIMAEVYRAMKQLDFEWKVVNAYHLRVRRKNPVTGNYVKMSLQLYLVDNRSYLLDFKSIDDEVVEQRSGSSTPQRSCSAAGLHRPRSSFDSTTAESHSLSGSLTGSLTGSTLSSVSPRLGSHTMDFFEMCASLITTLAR
Sequence of AMPK alpha2/beta2/gamma3 (O43741 whole entry): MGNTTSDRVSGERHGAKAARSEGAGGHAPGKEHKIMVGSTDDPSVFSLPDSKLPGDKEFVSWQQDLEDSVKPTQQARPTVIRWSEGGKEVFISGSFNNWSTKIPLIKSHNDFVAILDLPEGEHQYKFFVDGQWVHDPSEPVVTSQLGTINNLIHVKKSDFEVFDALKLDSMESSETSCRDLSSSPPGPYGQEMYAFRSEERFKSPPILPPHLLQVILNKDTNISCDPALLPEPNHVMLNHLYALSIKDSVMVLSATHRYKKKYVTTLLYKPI
Sequence of AMPK alpha2/beta2/gamma3 (Q9UGI9 whole entry): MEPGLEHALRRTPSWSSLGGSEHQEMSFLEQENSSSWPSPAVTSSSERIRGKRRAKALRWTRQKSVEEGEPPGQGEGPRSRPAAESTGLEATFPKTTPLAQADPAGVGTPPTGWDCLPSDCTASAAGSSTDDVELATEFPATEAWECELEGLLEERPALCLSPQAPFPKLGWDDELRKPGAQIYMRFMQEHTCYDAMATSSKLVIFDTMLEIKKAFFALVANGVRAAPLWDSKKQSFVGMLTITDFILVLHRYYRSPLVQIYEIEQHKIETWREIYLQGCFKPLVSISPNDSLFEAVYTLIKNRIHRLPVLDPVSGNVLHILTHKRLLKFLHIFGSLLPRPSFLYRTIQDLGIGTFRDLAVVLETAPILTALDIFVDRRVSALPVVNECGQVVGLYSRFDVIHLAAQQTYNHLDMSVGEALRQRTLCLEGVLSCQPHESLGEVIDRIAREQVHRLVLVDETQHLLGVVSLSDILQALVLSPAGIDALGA
Description: Activation of full-length recombinant N-terminal His-tagged human AMPKalpha2beta2gamma3 expressed in Escherichia coli BL21 cells using Cy-5 SAMS peptide as substrate preincubated for 60 mins followed by substrate addition and measured after 60 mins in presence of PP2a by TR-FRET assay

[8] = target: T1, AMP-activated protein kinase (AMPK) alpha-1/beta-1/gamma-1 (Homo sapiens, UniProt P54619+Q13131+Q9Y478); assay: biochemical
T1 sequence (P54619 whole entry): as the sequence (P54619 whole entry) above
T1 sequence (Q9Y478 whole entry): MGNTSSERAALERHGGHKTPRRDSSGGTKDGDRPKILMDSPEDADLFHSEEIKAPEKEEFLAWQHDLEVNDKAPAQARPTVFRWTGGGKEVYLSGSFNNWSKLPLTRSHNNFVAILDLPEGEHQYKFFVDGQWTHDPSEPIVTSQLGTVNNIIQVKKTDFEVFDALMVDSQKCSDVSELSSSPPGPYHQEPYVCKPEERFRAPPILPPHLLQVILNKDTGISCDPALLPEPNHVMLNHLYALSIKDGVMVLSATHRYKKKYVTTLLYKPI
T1 sequence (Q13131 whole entry): as the sequence (Q13131 whole entry partner) above
Description: Binding affinity to Bap-tagged human AMPKalpha1beta1gamma1 expressed in Escherichia coli BL21 cells by SPR analysis

[9] = target: AMPK alpha2/beta2/gamma1 (Homo sapiens, UniProt O43741+P54619+P54646); assay: biochemical
Sequence of AMPK alpha2/beta2/gamma1 (P54646 whole entry): as the sequence (P54646 whole entry) above
Sequence of AMPK alpha2/beta2/gamma1 (O43741 whole entry): as the sequence (O43741 whole entry) above
Sequence of AMPK alpha2/beta2/gamma1 (P54619 whole entry): as the sequence (P54619 whole entry) above
Description: Activation of full-length recombinant N-terminal His-tagged human AMPKalpha2beta2gamma1 expressed in Escherichia coli BL21 cells using Cy-5 SAMS peptide as substrate preincubated for 60 mins followed by substrate addition and measured after 60 mins in presence of PP2a by TR-FRET assay

[10] = target: AMPK alpha1/beta2/gamma1 (Homo sapiens, UniProt O43741+P54619+Q13131); assay: biochemical
Sequence of AMPK alpha1/beta2/gamma1 (O43741 whole entry): as the sequence (O43741 whole entry) above
Sequence of AMPK alpha1/beta2/gamma1 (P54619 whole entry): as the sequence (P54619 whole entry) above
Sequence of AMPK alpha1/beta2/gamma1 (Q13131 whole entry): as the sequence (Q13131 whole entry partner) above
Description: Activation of full-length recombinant N-terminal His-tagged human AMPKalpha1beta2gamma1 expressed in Escherichia coli BL21 cells using Cy-5 SAMS peptide as substrate preincubated for 60 mins followed by substrate addition and measured after 60 mins in presence of PP2a by TR-FRET assay

[11] = target: AMPK alpha2/beta1/gamma1 (Homo sapiens, UniProt P54619+P54646+Q9Y478); assay: biochemical
Sequence of AMPK alpha2/beta1/gamma1 (P54646 whole entry): as the sequence (P54646 whole entry) above
Sequence of AMPK alpha2/beta1/gamma1 (P54619 whole entry): as the sequence (P54619 whole entry) above
Sequence of AMPK alpha2/beta1/gamma1 (Q9Y478 whole entry): as the sequence (Q9Y478 whole entry) above
Description: Activation of full-length recombinant N-terminal His-tagged human AMPKalpha2beta1gamma1 expressed in Escherichia coli BL21 cells using Cy-5 SAMS peptide as substrate preincubated for 60 mins followed by substrate addition and measured after 60 mins in presence of PP2a by TR-FRET assay

[12] = target: T1, AMP-activated protein kinase (AMPK) alpha-1/beta-1/gamma-1; assay: biochemical; remark: listed apart in the source
Description: Activation of full-length recombinant N-terminal His-tagged human AMPKalpha1beta1gamma1 expressed in Escherichia coli BL21 cells using Cy-5 SAMS peptide as substrate preincubated for 60 mins followed by substrate addition and measured after 60 mins in presence of PP2a by TR-FRET assay

[13] = Drug level in human hepatocytes treated with 6-chloro-5-[4-(1-hydroxycyclobutyl)phenyl]-1H-indole-3-carboxylic acid at 10 uM after 4 hrs by HPLC-UV analysis; format: ADME, cell-based, Hepatocyte
[14] = Half life in rat hepatocytes; format: ADME, cell-based, Hepatocyte
[15] = Intrinsic clearance in human primary hepatocytes assessed per million cells; format: ADME, cell-based, Hepatocyte; conditions: read-out: CLH
[16] = Half life in human primary hepatocytes at 10 uM; format: ADME, cell-based, Hepatocyte
[17] = Plasma clearance in Wistar Han rat at 0.5 mg/kg, iv by LC-MS/MS analysis; format: ADME, organism-based
[18] = AUC (0 to 24 hrs) in Wistar Han rat at 0.5 mg/kg, iv by LC-MS/MS analysis; format: ADME, organism-based; parameters: time < 24 hr, dose 0.5 mg/kg, route intravenous; conditions: in vivo
[19] = system: Rattus norvegicus; assay: AUC (0 to 24 hrs) in Wistar Han rat assessed as 6-chloro-5-[4-(1-hydroxycyclobutyl)phenyl]-1H-indole-3-carboxylic acid level at 0.5 mg/kg, iv by LC-MS/MS analysis; format: ADME, organism-based; parameters: time < 24 hr, dose 0.5 mg/kg, route intravenous; conditions: in vivo
[20] = Volume of distribution at steady state in Wistar Han rat at 0.5 mg/kg, iv by LC-MS/MS analysis; format: ADME, organism-based; conditions: in vivo, read-out: Vdss
[21] = Half life in Wistar Han rat at 0.5 mg/kg, iv by LC-MS/MS analysis; format: ADME, organism-based; conditions: in vivo
[22] = system: Cynomolgus monkey; assay: AUC (0 to 24 hrs) in cynomolgus monkey assessed as 6-chloro-5-[4-(1-hydroxycyclobutyl)phenyl]-1H-indole-3-carboxylic acid level at 0.5 mg/kg, iv by LC-MS/MS analysis; format: ADME, organism-based, Macaca fascicularis; parameters: dose 0.5 mg/kg, time < 24 hr, route intravenous; conditions: in vivo
[23] = Drug recovery in Wistar Han rat urine assessed as unchanged parent compound level at 0.5 mg/kg, iv by LC-MS/MS analysis; format: ADME, organism-based; conditions: read-out: Drug recovery
[24] = Half life in human hepatocytes; format: ADME, cell-based, Hepatocyte
[25] = Half life in monkey hepatocytes; format: ADME, cell-based, Macaca mulatta, Hepatocyte; conditions: rhesus monkey
[26] = Intrinsic clearance in rat hepatocytes assessed per million cells; format: ADME, cell-based, Hepatocyte; conditions: read-out: CLH
[27] = Intrinsic clearance in human hepatocytes assessed per million cells; format: ADME, cell-based, Hepatocyte; conditions: read-out: CLH
[28] = Intrinsic clearance in monkey hepatocytes assessed per million cells; format: ADME, cell-based, Macaca mulatta, Hepatocyte; conditions: rhesus monkey, read-out: CLH
[29] = in vivo; conditions: cynomolgus monkey, plasma, iv, 1 mg/kg
[30] = in vivo; conditions: cynomolgus monkey, iv, 1 mg/kg
[31] = in vivo; conditions: cynomolgus monkey, iv, 1 mg/kg; remark: listed apart in the source
Description: Volume of distribution at steady state in cynomolgus monkey at 1 mg/kg, iv by LC-MS/MS analysis

[32] = in vivo; conditions: cynomolgus monkey, iv, 1 mg/kg; remark: listed apart in the source
Description: Half life in cynomolgus monkey at 1 mg/kg, iv by LC-MS/MS analysis

[33] = in vivo; conditions: cynomolgus monkey, urine, iv, 1 mg/kg
Description: Drug recovery in cynomolgus monkey urine assessed as unchanged parent compound level at 1 mg/kg, iv by LC-MS/MS analysis

[34] = in vitro; conditions: rhesus monkey, plasma
Description: Protein binding in monkey plasma assessed as unbound fraction

[35] = in vitro; conditions: human, plasma
Description: Protein binding in human plasma assessed as unbound fraction

[36] = in vitro; conditions: rat, plasma
Description: Protein binding in rat plasma assessed as unbound fraction

[37] = Drug level in human hepatocytes treated with 6-chloro-5-(6-(dimethylamino)-2-methoxypyridin-3-yl)-1H-indole-3-carboxylic acid at 10 uM after 4 hrs by HPLC-UV analysis; format: ADME, cell-based, Hepatocyte
[38] = Drug metabolism in human hepatocytes assessed as (2S,3S,4S,5R,6S)-6-((4,6-Difluoro-5-(4-((S)-tetrahydro-2H-pyran-2-yl)phenyl-1H-indole-3-carbonyl)oxy)-3,4,5-trihydroxytetrahydro-2H-pyran-2-carboxylic acid formation at 10 uM after 4 hrs by HPLC-UV analysis; format: ADME, cell-based, Hepatocyte

Compound: O=C(O[C@@H]1O[C@H](C(=O)O)[C@@H](O)[C@H](O)[C@H]1O)c1c[nH]c2cc(F)c(-c3ccc([C@@H]4CCCCO4)cc3)c(F)c12
half-life [2]: > 1260 min | Drug metabolism [3]: Metabolite_Detected | T1/2 [4]: 15.3 s | Retention_time [5]: 8.37 min | Papp [6]: 0.3 ×10⁻⁶ cm/s | logD at 1 h [1]: 0.08 | pEC50 [7]: < 4.40 | pKd [8]: 6.70 | pEC50 [9]: < 4.40 | pEC50 [10]: < 4.40 | pEC50 [11]: 6.48 | pEC50 [12]: 7.23

Compound: O=C(O[C@@H]1O[C@H](C(=O)O)[C@@H](O)[C@H](O)[C@H]1O)c1c[nH]c2cc(Cl)c(-c3ccc(C4(O)CCC4)cc3)cc12
half-life [14]: > 240 min | hepatocyte CLint [15]: < 3 µL/min/1e6 cells | half-life at 10 µM [16]: > 400 min | half-life [2]: > 1260 min | Drug metabolism [13]: Metabolite_Detected | clearance [17]: 0.99 mL/min/kg | AUC(0-t) at 24 h [18]: 8850 ng·h/mL | AUC [19]: 101 ng·h/mL | Vd [20]: 0.4 L/kg | half-life [21]: 418 min | AUC [22]: 303 ng·h/mL | dose excreted [23]: 1% | half-life [24]: > 240 min | half-life [25]: > 240 min | hepatocyte CLint [26]: < 6 µL/min/1e6 cells | hepatocyte CLint [27]: < 6 µL/min/1e6 cells | hepatocyte CLint [28]: < 6 µL/min/1e6 cells | Retention_time [5]: 7.09 min | clearance [29]: 9.85 mL/min/kg | AUC(0-t) at 24 h [30]: 1750 ng·h/mL | Vd [31]: 4.52 L/kg | half-life [32]: 1080 min | dose excreted [33]: 9.8% | fraction unbound [34]: 0.028 | fraction unbound [35]: 0.019 | fraction unbound [36]: 0.0018 | Papp [6]: 0.6 ×10⁻⁶ cm/s | logD at 1 h [1]: -0.14

Compound: O=C(O)c1c[nH]c2cc(F)c(-c3ccc([C@@H]4CCCCO4)cc3)c(F)c12
Drug metabolism [38]: Metabolite_Detected | Retention_time [5]: 9.72 min | logD at 1 h [1]: 1.8

Results, then the molecule that gave them:

logD at 1 h [1]: 2.3
Compound: COc1nc(N(C)C)ccc1-c1cc2c(C(=O)O)c[nH]c2cc1Cl

Drug metabolism [13]: Metabolite_Detected | Retention_time [5]: 7.25 min
Compound: O=C(NO)c1c[nH]c2cc(Cl)c(-c3ccc(C4(O)CCC4)cc3)cc12

hepatocyte CLint [15]: < 3 µL/min/1e6 cells | half-life at 10 µM [16]: > 400 min | half-life [2]: > 1260 min | Drug metabolism [37]: Metabolite_Detected | Retention_time [5]: 7.96 min | Papp [6]: 0.3 ×10⁻⁶ cm/s | logD at 1 h [1]: -0.05
Compound: COc1nc(N(C)C)ccc1-c1cc2c(C(=O)O[C@@H]3O[C@H](C(=O)O)[C@@H](O)[C@H](O)[C@H]3O)c[nH]c2cc1Cl
